Experimental data reported in patent publication US20210395210A1, “INHIBITION OF BACTERIAL CHAPERONIN SYSTEMS” (THE TRUSTEES OF INDIANA UNIVERSITY, priority 2018, published 2021).
Where two headings read alike, the source gives them in different places.

What was measured:
[1] = system: Acinetobacter baumannii (ATCC 19606); assay: Bacterial proliferation assay, A. baumannii; type: cell-based
Text: (§1) Bacterial Strains: Enterococcus faecium—(Orla-Jensen) Schleifer and Kilpper-Balz strain NCTC 7171 (ATCC 19434); Drug sensitive Staphylococcus aureus—Rosenbranch strain Seattle 1945 (ATCC 25923); Methicillin resistant S. aureus (MRSA)—Rosenbach strain HPV107 (ATCC BAA-44); Klebsiella Pneumonia—(Schroeter) Trevisan strain NCTC 9633 (ATCC 13883); Acinetobacter baumannii—Bouvet and Grimont strain 2208 (ATCC 19606); Pseudomonas aeruginosa—(Schroeter) Migula strain NCTC 10332 (ATCC 10145); Enterobacter cloacae—E. cloacae, subsp. cloacae (Jordan) Hormaeche and Edwards strain CDC 442-68 (ATCC 13047).
(§2) Growth Media: All bacteria were grown in Brain Heart Infusion (BHI) broth/agar (Becton, Dickinson and Company). All liquid cultures were grown in BHI media supplemented with 25 mg/L Ca^2+ and 12.5 mg/L Mg^2+ to mimic free physiological concentrations of these cations. A 10 mg/mL Ca^2+ stock solution was prepared by dissolving 3.68 g of CaCl2.2H2O in 100 mL of deionized water, and a 10 mg/mL Mg^2+ stock solution was prepared by dissolving 8.36 g of MgCl2.6H2O in 100 mL deionized water. Both stock solutions were filter-sterilized using 0.2 μm pore size cellulose-acetate filters. 2.5 mL of the sterile 10 mg/mL Ca^2+ stock and 1.25 mL of the sterile 10 mg/mL Mg^2+ stock solutions were added per 1 L of autoclaved BHI medium to obtain 25 mg/L Ca^2+ and 12.5 mg/L Mg^2+ ions, respectively.
(§3) General Assay Protocol: Stock bacterial cultures were streaked onto BHI agar plates and grown overnight at 37° C. Fresh aliquots of broth were inoculated with single bacterial colonies and the cultures were grown overnight at 37° C. with shaking (240 rpm) in cation adjusted BHI media. The following morning, the overnight cultures were sub-cultured (1:5 dilution) into fresh aliquots of cation adjusted BHI media and grown at 37° C. for 1-2 hours with shaking. After 2 h, cultures were diluted into fresh media to achieve final OD600 readings of 0.017. Aliquots of these diluted cultures (30 μL) were added to clear, flat-bottom, 384-well polystyrene plates that were stamped with 0.5 μL of test compounds in 20 μL media. […] Plates were sealed with “Breathe Easy” oxygen permeable membranes (Diversified Biotech) and left to incubate at 37° C. without shaking (stagnant assay). OD600 nm readings were taken at either 6-8 h (S. aureus, MRSA, K. pneumonia, E. cloacae, and P. aeruginosa) or 24 h (E. faecium and A. baumannii). A second set of baseline control plates were prepared analogously, but without any bacteria added, to correct for possible compound absorbance and/or precipitation. Plates were then read at 600 nm using a Molecular Devices SpectraMax Plus384 microplate reader. […] Results presented represent the averages of EC50 values obtained from at quadriplicate (duplicate of duplicate) replicates.

[2] = target: T1, native MDH (Sus scrofa, UniProt P00346); assay: Counter-screen for inhibition of native MDH enzymatic activity; type: biochemical, pig
T1 construct: soluble pig heart MDH from Roche, product #10127248001; purchased Roche 10127248001; host or cells: pig heart
T1 sequence (P00346 25-338): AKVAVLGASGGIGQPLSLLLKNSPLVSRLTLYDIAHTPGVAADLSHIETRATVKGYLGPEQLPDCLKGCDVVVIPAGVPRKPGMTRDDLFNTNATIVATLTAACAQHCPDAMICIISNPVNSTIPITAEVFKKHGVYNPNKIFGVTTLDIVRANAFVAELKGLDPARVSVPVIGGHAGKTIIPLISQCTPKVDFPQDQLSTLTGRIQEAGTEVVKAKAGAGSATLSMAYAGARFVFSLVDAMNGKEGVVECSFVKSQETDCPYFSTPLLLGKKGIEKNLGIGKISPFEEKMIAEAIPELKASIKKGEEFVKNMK
Outline: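 Fully refolded MDH, produced by a 45 min, 37 °C GroEL/ES reaction and stopped with EDTA, was then dosed with compound (62.5 μM–29 nM, 8 points, 3-fold). Activity was read as A340 NADH decrease until ~90% consumed; reported IC50s are means of at least quadruplicate runs.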

[3] = system: Enterococcus faecium (ATCC 19434); assay: Bacterial proliferation assay, E. faecium; type: cell-based
Text: as §1, §2, §3

[4] = system: Klebsiella Pneumonia (ATCC 13883); assay: Bacterial proliferation assay, K. pneumoniae; type: cell-based
Text: as §1, §2, §3

[5] = system: Pseudomonas aeruginosa (ATCC 10145); assay: Bacterial proliferation assay, P. aeruginosa; type: cell-based
Text: as §1, §2, §3

[6] = system: Methicillin resistant S. aureus (MRSA) (ATCC BAA-44); assay: Bacterial proliferation assay, MRSA; type: cell-based, Staphylococcus aureus; conditions: Staphylococcus aureus
Text: as §1, §2, §3

[7] = ATCC19606, OD600 at 24 h, read-out: Bacterial Proliferation EC50 A. baumannii
[8] = ATCC19606, log of EC50 (μM scale), with standard deviation, read-out: log(EC50) Bacterial Proliferation Assay A. baumannii (converted)
[9] = log of IC50 (μM scale), with standard deviation, read-out: log(IC50) Native MDH Reporter (converted)
[10] = read-out: Biochemical Assay IC50 Native MDH Reporter
[11] = ATCC19434, OD600 at 24 h, read-out: Bacterial Proliferation EC50 E. faecium
[12] = ATCC19434, log of EC50 (μM scale), with standard deviation, read-out: log(EC50) Bacterial Proliferation Assay C. faecium (converted)
[13] = ATCC13883, OD600 at 6-8 h, read-out: Bacterial Proliferation EC50 K. pneumoniae
[14] = ATCC13883, log of EC50 (μM scale), with standard deviation, read-out: log(EC50) Bacterial Proliferation Assay K. pneumoniae (converted)
[15] = ATCC10145, OD600 at 6-8 h, read-out: Bacterial Proliferation EC50 P. aeruginosa
[16] = ATCC10145, log of EC50 (μM scale), with standard deviation, read-out: log(EC50) Bacterial Proliferation Assay P. aeruginosa (converted)
[17] = MRSA, OD600 at 6-8 h, read-out: Bacterial Proliferation EC50 S. aureus Resistant
[18] = MRSA, log of EC50 (μM scale), with standard deviation, read-out: log(EC50) Bacterial Proliferation Assay S. aureus Resistant (converted)

O=C(Nc1ccccc1)c1cc(Br)ccc1O [Compound 15, 5-Bromo-2-hydroxy-N-phenylbenzamide] was tested, and the EC50 [1, 7] was over 100 µM, the EC50 [1, 8] was over 100 µM and the IC50 [2, 9] was over 63.1 µM. The IC50 [2, 10] was over 63 µM, the EC50 [3, 11] was over 100 µM and the EC50 [3, 12] was over 100 µM. The EC50 [4, 13] was 78 µM, the EC50 [4, 14] was 77.6 µM and the EC50 [5, 15] was over 100 µM. For the same compound, the EC50 [5, 16] was over 100 µM, the EC50 [6, 17] was 4.1 µM and the EC50 [6, 18] was 4.07 µM.
COc1c(Br)cc(Br)cc1C(=O)Nc1cccc(Cl)c1 [Compound 37, 3,5-Dibromo-N-(3-chlorophenyl)-2-methoxybenzamide] showed an EC50 [1, 7] of over 100 µM, an EC50 [1, 8] of over 100 µM and an IC50 [2, 9] of over 63.1 µM. For the same compound, the IC50 [2, 10] was over 63 µM, the EC50 [3, 11] was over 100 µM and the EC50 [3, 12] was over 100 µM. The EC50 [4, 13] was over 100 µM, the EC50 [4, 14] was over 100 µM and the EC50 [5, 15] was over 100 µM. It also gave an EC50 [5, 16] of over 100 µM, an EC50 [6, 17] of over 100 µM and an EC50 [6, 18] of over 100 µM.
For O=C(Nc1ccc(Sc2nc3ccccc3s2)cc1)c1cc(Br)cc(Br)c1O [Compound 5, N-(4-(Benzo[d]thiazol-2-ylthio)phenyl)-3,5-dibromo-2-hydroxybenzamide], the EC50 ([1]; ATCC19606, 24 h, read-out: Bacterial Proliferation EC50 A. baumannii) was over 100 µM, the EC50 ([1]; ATCC19606, read-out: log(EC50) Bacterial Proliferation Assay A. baumannii (converted)) was over 100 µM and the “inhibition of native MDH enzymatic activity (in words)” value ([2]; false-positive counter-screen) was “inhibit native MDH”. The “log(IC50) Native MDH Reporter” value ([2]; log of IC50 (μM scale), with standard deviation) was 0.92 ± 0.21, the EC50 ([3]; ATCC19434, 24 h, read-out: Bacterial Proliferation EC50 E. faecium) was 0.88 µM and the EC50 ([3]; ATCC19434, read-out: log(EC50) Bacterial Proliferation Assay C. faecium (converted)) was 0.891 µM. It also gave an EC50 ([4]; ATCC13883, read-out: Bacterial Proliferation EC50 K. pneumoniae) of over 100 µM, an EC50 ([4]; ATCC13883, read-out: log(EC50) Bacterial Proliferation Assay K. pneumoniae (converted)) of over 100 µM and an EC50 ([5]; ATCC10145, read-out: Bacterial Proliferation EC50 P. aeruginosa) of over 100 µM. The EC50 ([5]; ATCC10145, read-out: log(EC50) Bacterial Proliferation Assay P. aeruginosa (converted)) was over 100 µM, the EC50 ([6]; read-out: Bacterial Proliferation EC50 S. aureus Resistant) was 0.52 µM and the EC50 ([6]; read-out: log(EC50) Bacterial Proliferation Assay S. aureus Resistant (converted)) was 0.525 µM.
With COc1c(Br)cccc1C(=O)Nc1cccc(Cl)c1 [Compound 38] the EC50 [1, 7] was over 100 µM, the EC50 [1, 8] was over 100 µM and the IC50 [2, 9] was over 63.1 µM. For the same compound, the IC50 [2, 10] was over 63 µM, the EC50 [3, 11] was over 100 µM and the EC50 [3, 12] was over 100 µM. It also gave an EC50 [4, 13] of over 100 µM, an EC50 [4, 14] of over 100 µM and an EC50 [5, 15] of over 100 µM. It also gave an EC50 [5, 16] of over 100 µM and an EC50 [6, 18] of over 100 µM.
O=C(Nc1ccccc1)c1cc(Br)cc(Br)c1 [Compound 26, 3,5-Dibromo-N-phenylbenzamide] gave an EC50 [1, 7] of over 100 µM, an EC50 [1, 8] of over 100 µM and an IC50 [2, 9] of over 63.1 µM. It also gave an IC50 [2, 10] of over 63 µM, an EC50 [3, 11] of over 100 µM and an EC50 [3, 12] of over 100 µM. For the same compound, the EC50 [4, 13] was over 100 µM, the EC50 [4, 14] was over 100 µM and the EC50 [5, 15] was over 100 µM. It also gave an EC50 [5, 16] of over 100 µM and an EC50 [6, 18] of over 100 µM.
O=C(Nc1ccc(Sc2nc3ccccc3s2)c(Cl)c1)c1cc(Br)cc(Br)c1 [Compound 17, N-(4-(Benzo[d]thiazol-2-ylthio)-3-chlorophenyl)-3,5-dibromobenzamide] showed an EC50 [1, 7] of over 100 µM, an EC50 [1, 8] of over 100 µM and an IC50 [2, 9] of over 63.1 µM. For the same compound, the IC50 [2, 10] was over 63 µM, the EC50 [3, 11] was over 100 µM and the EC50 [3, 12] was over 100 µM. The EC50 [4, 13] was over 100 µM, the EC50 [4, 14] was over 100 µM and the EC50 [5, 15] was over 100 µM. The EC50 [5, 16] was over 100 µM and the EC50 [6, 18] was over 100 µM.
